{"source": "paper PMC3414753", "about": "“Oleamide activates peroxisome proliferator-activated receptor gamma (PPARγ) in vitro” (2012)", "key": {"[1]": {"target": "T1, PPARα (Homo sapiens, UniProt Q07869)", "T1 construct": "gene PPARA", "T1 sequence (Q07869 196-468 limits assumed)": "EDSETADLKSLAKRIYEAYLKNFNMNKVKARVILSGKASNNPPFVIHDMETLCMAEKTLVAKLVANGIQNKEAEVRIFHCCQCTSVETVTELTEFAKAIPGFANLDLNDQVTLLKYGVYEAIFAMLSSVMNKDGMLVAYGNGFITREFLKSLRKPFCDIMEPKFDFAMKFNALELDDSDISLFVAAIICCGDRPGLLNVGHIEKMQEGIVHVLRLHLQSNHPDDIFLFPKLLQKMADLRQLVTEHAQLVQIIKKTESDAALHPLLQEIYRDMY", "test": "LanthaScreen TR-FRET competitive binding assay; displacement incomplete at […]"}, "[2]": {"target": "T2, PPARβ (Homo sapiens, UniProt Q03181)", "T2 construct": "gene PPARD", "T2 sequence (Q03181 171-441 limits assumed)": "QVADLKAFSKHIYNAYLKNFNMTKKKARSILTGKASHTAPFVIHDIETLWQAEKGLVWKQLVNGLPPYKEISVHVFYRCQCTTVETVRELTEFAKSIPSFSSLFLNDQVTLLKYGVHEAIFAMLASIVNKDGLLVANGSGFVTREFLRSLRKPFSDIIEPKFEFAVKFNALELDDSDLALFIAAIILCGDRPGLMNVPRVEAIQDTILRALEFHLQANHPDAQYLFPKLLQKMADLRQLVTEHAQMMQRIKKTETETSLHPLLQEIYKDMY", "test": "LanthaScreen TR-FRET competitive binding assay; displacement incomplete at […]"}, "[3]": {"target": "T3, PPARγ (Homo sapiens, UniProt P37231)", "T3 construct": "gene PPARG", "T3 sequence (P37231 232-505 limits assumed)": "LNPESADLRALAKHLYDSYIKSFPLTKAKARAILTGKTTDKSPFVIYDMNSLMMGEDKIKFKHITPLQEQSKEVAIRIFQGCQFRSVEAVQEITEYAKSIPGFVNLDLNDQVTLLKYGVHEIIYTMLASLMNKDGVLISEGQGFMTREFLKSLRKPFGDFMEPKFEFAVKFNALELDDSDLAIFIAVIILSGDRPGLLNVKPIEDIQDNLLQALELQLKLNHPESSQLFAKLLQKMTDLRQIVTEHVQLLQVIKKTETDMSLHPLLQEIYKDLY", "test": "biochemical", "assay_type": "binding"}}}
{"smiles": "CCCCCCCC/C=C\\CCCCCCCC(N)=O", "note": "[ODA, (Z)-octadec-9-enamide]", "values": [{"measurement": "LanthaScreen TR-FRET competitive binding assay; displacement incomplete at 100 μ", "setting": "[1]", "result": "ODA evoked concentration-dependent displacement of fluorescent ligand from each receptor binding site, displacement at PPARα and PPARβ was incomplete"}, {"measurement": "LanthaScreen TR-FRET competitive binding assay; displacement incomplete at 100 μ", "setting": "[2]", "result": "ODA evoked concentration-dependent displacement of fluorescent ligand from each receptor binding site, displacement at PPARα and PPARβ was incomplete"}, {"measurement": "IC50", "setting": "[3]", "result": "~38", "unit": "µM"}]}
